This is an account of results in ChEMBL document CHEMBL5360518, “Discovery of a novel photoswitchable PI3K inhibitor toward optically-controlled anticancer activity” (Bioorg Med Chem, 2022).

Assay [1] has as its target T1, Phosphatidylinositol 4,5-bisphosphate 3-kinase catalytic subunit alpha isoform (Homo sapiens, UniProt P42336). Briefly: Inhibition of PI3Kalpha (unknown origin) using PIP2 as substrate incubated for 1 hr in presence of ATP under dark condition by ADP-Glo luminescent assay. (In general: ADP-Glo first removes unused ATP, then detects ADP through luciferase.)
Assay [2] addresses RAC-alpha serine/threonine-protein kinase (Homo sapiens) (UniProt P31749). The assay can be described thus: Inhibition of AKT phosphorylation at S473 residue in human HGC-27 cells harboring PI3KCA mutation and overactive PI3K pathway by Western blot analysis. Particulars: dose 0.08-0.4 µM. It counts as cell-based. In general terms: In western blotting, separated proteins are transferred to a membrane and probed.

The target is the same in assay [3]. The assay can be described thus: Inhibition of AKT phosphorylation at T308 residue in human HGC-27 cells harboring PI3KCA mutation and overactive PI3K pathway by Western blot analysis. It counts as cell-based. The following applies: dose 0.08-0.4 µM.
Assay [4] addresses T2, Ribosomal protein S6 kinase (Homo sapiens) (UniProt P51812+Q9UBS0+O75676+Q15349+O75582+P23443+Q9UK32+Q15418). Briefly: Inhibition of S6 phosphorylation in human HGC-27 cells harboring PI3KCA mutation and overactive PI3K pathway by Western blot analysis. It counts as cell-based. Particulars: dose 0.08-0.4 µM.
The target of assay [5] is RAC-alpha serine/threonine-protein kinase (Homo sapiens) (UniProt P31749). Briefly: Inhibition of AKT phosphorylation at S473 residue in human HGC-27 cells harboring PI3KCA mutation and overactive PI3K pathway at 0.08 to 0.4 uM compound irradiated for 2 mins at 365 nm by Western blot analysis. Type of assay: cell-based. Particulars: dose 0.08-0.4 µM.
RAC-alpha serine/threonine-protein kinase (Homo sapiens), sequence (P31749 whole entry): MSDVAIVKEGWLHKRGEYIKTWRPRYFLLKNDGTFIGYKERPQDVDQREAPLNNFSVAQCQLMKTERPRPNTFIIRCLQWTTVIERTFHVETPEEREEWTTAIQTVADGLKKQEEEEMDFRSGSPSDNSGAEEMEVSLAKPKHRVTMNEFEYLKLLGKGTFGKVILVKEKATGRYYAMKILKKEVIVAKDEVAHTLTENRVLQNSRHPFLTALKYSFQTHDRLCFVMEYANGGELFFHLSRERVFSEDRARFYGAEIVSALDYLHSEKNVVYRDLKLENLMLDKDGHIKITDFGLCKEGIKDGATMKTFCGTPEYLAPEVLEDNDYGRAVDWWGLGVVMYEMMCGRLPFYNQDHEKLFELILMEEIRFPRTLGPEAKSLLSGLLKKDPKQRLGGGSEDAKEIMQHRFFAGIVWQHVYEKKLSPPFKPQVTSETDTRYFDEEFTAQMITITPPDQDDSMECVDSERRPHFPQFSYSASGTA
Assay [6] has the same target. The assay can be described thus: Inhibition of AKT phosphorylation at T308 residue in human HGC-27 cells harboring PI3KCA mutation and overactive PI3K pathway at 0.08 to 0.4 uM compound irradiated for 2 mins at 365 nm by Western blot analysis. Type of assay: cell-based. The following applies: dose 0.08-0.4 µM.
Assay [7] addresses T2, Ribosomal protein S6 kinase (Homo sapiens). Briefly: Inhibition of S6 phosphorylation in human HGC-27 cells harboring PI3KCA mutation and overactive PI3K pathway at 0.08 to 0.4 uM compound irradiated for 2 mins at 365 nm by Western blot analysis. It counts as cell-based. Particulars: dose 0.08-0.4 µM.
Assay [8] concerns HGC-27. Briefly: Induction of apoptosis in human HGC-27 cells harboring PI3KCA mutation and overactive PI3K pathway assessed as early apoptotic cells at 0.08 uM incubated for 48 hrs under dark condition by Annexin V-FITC/PI staining based flow cytometry analysis (reference value: 2.26%). Type of assay: functional. For orientation: A flow cytometer gives signals particle by particle.

The subject of assay [9] is HGC-27. The assay can be described thus: Induction of apoptosis in human HGC-27 cells harboring PI3KCA mutation and overactive PI3K pathway assessed as late apoptotic cells at 0.08 uM incubated for 48 hrs under dark condition by Annexin V-FITC/PI staining based flow cytometry analysis (reference value: 3.39%). It counts as functional.
In assay [10] the test system is HGC-27. Briefly: Induction of apoptosis in human HGC-27 cells harboring PI3KCA mutation and overactive PI3K pathway assessed as early apoptotic cells at 0.4 uM incubated for 48 hrs under dark condition by Annexin V-FITC/PI staining based flow cytometry analysis (reference value: 2.26%). Type of assay: functional.
Assay [11] has as its system HGC-27. The assay can be described thus: Induction of apoptosis in human HGC-27 cells harboring PI3KCA mutation and overactive PI3K pathway assessed as late apoptotic cells at 0.4 uM incubated for 48 hrs under dark condition by Annexin V-FITC/PI staining based flow cytometry analysis (reference value: 3.39%). It counts as functional.
In assay [12] the test system is NCI-H460. The assay can be described thus: Induction of apoptosis in human NCI-H460 cells harboring PI3KCA mutation and overactive PI3K pathway assessed as early apoptotic cells at 0.08 uM incubated for 48 hrs under dark condition by Annexin V-FITC/PI staining based flow cytometry analysis (reference value: 2.6%). Type of assay: functional.
For assay [13], the system named is NCI-H460. Briefly: Induction of apoptosis in human NCI-H460 cells harboring PI3KCA mutation and overactive PI3K pathway assessed as late apoptotic cells at 0.08 uM incubated for 48 hrs under dark condition by Annexin V-FITC/PI staining based flow cytometry analysis (reference value: 2.27%). Type of assay: functional.
The test system of assay [14] is NCI-H460. The assay can be described thus: Induction of apoptosis in human NCI-H460 cells harboring PI3KCA mutation and overactive PI3K pathway assessed as early apoptotic cells at 0.4 uM incubated for 48 hrs under dark condition by Annexin V-FITC/PI staining based flow cytometry analysis (reference value: 2.6%). It counts as functional.
Assay [15] has as its system NCI-H460. The assay can be described thus: Induction of apoptosis in human NCI-H460 cells harboring PI3KCA mutation and overactive PI3K pathway assessed as late apoptotic cells at 0.4 uM incubated for 48 hrs under dark condition by Annexin V-FITC/PI staining based flow cytometry analysis (reference value: 2.27%). Type of assay: functional.
In assay [16] the test system is HGC-27. Briefly: Inhibition of colony formation in human HGC-27 cells harboring PI3KCA mutation and overactive PI3K pathway assessed as reduction in number of colonies incubated for 10 days under dark condition by crystal violet staining based assay. It counts as functional, cell-based. Particulars: dose 0.08-0.4 µM, time 10.0 day.
For assay [17], the system named is HGC-27. Briefly: Inhibition of cell migration in human HGC-27 cells harboring PI3KCA mutation and overactive PI3K pathway assessed as reduction in migratory ability at 0.08 to 0.4 uM incubated for 16 hrs under dark condition by crystal violet staining based assay. Type of assay: functional. The following applies: dose 0.08-0.4 µM.
The subject of assay [18] is HGC-27. The assay can be described thus: Antitumor activity against CM-Dil labeled human HGC-27 cells implanted in yolk sac of Albino wild type zebrafish embryos assessed as inhibition of tumor growth by measuring reduction in fluorescence density at 0.391 to 0.781 ng per fish incubated for 48 hrs in dark condition by fluorescence microscopic analysis. It counts as functional. Particulars: dose 0.391-0.781 ng.

Assay [19] deals with T1, Phosphatidylinositol 4,5-bisphosphate 3-kinase catalytic subunit alpha isoform. Briefly: Inhibition of PI3Kalpha (unknown origin) using PIP2 as substrate incubated for 1 hr in presence of ATP under irradiation with 365 nm UV light by ADP-Glo luminescent assay.
Assay [20] addresses RAC-alpha serine/threonine-protein kinase (Homo sapiens) (UniProt P31749). Briefly: Inhibition of AKT phosphorylation at S473 residue in human HGC-27 cells harboring PI3KCA mutation and overactive PI3K pathway at 0.08 to 0.4 uM compound irradiated for 5 mins at 520 nm by Western blot analysis. Type of assay: cell-based. Particulars: dose 0.08-0.4 µM.
For assay [21] the target is unchanged. The assay can be described thus: Inhibition of AKT phosphorylation at T308 residue in human HGC-27 cells harboring PI3KCA mutation and overactive PI3K pathway at 0.08 to 0.4 uM compound irradiated for 5 mins at 520 nm by Western blot analysis. It counts as cell-based. Particulars: dose 0.08-0.4 µM.
The target of assay [22] is T2, Ribosomal protein S6 kinase (Homo sapiens). The assay can be described thus: Inhibition of S6 phosphorylation in human HGC-27 cells harboring PI3KCA mutation and overactive PI3K pathway at 0.08 to 0.4 uM compound irradiated for 5 mins at 520 nm by Western blot analysis. Type of assay: cell-based. The following applies: dose 0.08-0.4 µM.
Assay [23] relates to HGC-27. The assay can be described thus: Induction of apoptosis in human HGC-27 cells harboring PI3KCA mutation and overactive PI3K pathway assessed as early apoptotic cells at 0.08 uM incubated for 48 hrs under irradiation with 365 nm UV light 2 mins once for every 8 hrs by Annexin V-FITC/PI staining based flow cytometry analysis (reference value: 2.26%). It counts as functional.

Assay [24] relates to HGC-27. Briefly: Induction of apoptosis in human HGC-27 cells harboring PI3KCA mutation and overactive PI3K pathway assessed as late apoptotic cells at 0.08 uM incubated for 48 hrs under irradiation with 365 nm UV light 2 mins once for every 8 hrs by Annexin V-FITC/PI staining based flow cytometry analysis (reference value: 3.39%). It counts as functional.
The subject of assay [25] is HGC-27. Briefly: Induction of apoptosis in human HGC-27 cells harboring PI3KCA mutation and overactive PI3K pathway assessed as early apoptotic cells at 0.4 uM incubated for 48 hrs under irradiation with 365 nm UV light 2 mins once for every 8 hrs by Annexin V-FITC/PI staining based flow cytometry analysis (reference value: 2.26%). It counts as functional.
Assay [26] deals with HGC-27. Briefly: Induction of apoptosis in human HGC-27 cells harboring PI3KCA mutation and overactive PI3K pathway assessed as late apoptotic cells at 0.4 uM incubated for 48 hrs under irradiation with 365 nm UV light 2 mins once for every 8 hrs by Annexin V-FITC/PI staining based flow cytometry analysis (reference value: 3.39%). It counts as functional.
Assay [27] deals with NCI-H460. Briefly: Induction of apoptosis in human NCI-H460 cells harboring PI3KCA mutation and overactive PI3K pathway assessed as early apoptotic cells at 0.08 uM incubated for 48 hrs under irradiation with 365 nm UV light 2 mins once for every 8 hrs by Annexin V-FITC/PI staining based flow cytometry analysis (reference value: 2.6%). It counts as functional.
Assay [28] deals with NCI-H460. Briefly: Induction of apoptosis in human NCI-H460 cells harboring PI3KCA mutation and overactive PI3K pathway assessed as late apoptotic cells at 0.08 uM incubated for 48 hrs under irradiation with 365 nm UV light 2 mins once for every 8 hrs by Annexin V-FITC/PI staining based flow cytometry analysis (reference value: 2.27%). It counts as functional.
Assay [29] has as its system NCI-H460. The assay can be described thus: Induction of apoptosis in human NCI-H460 cells harboring PI3KCA mutation and overactive PI3K pathway assessed as early apoptotic cells at 0.4 uM incubated for 48 hrs under irradiation with 365 nm UV light 2 mins once for every 8 hrs by Annexin V-FITC/PI staining based flow cytometry analysis (reference value: 2.6%). Type of assay: functional.

For assay [30], the system named is NCI-H460. The assay can be described thus: Induction of apoptosis in human NCI-H460 cells harboring PI3KCA mutation and overactive PI3K pathway assessed as late apoptotic cells at 0.4 uM incubated for 48 hrs under irradiation with 365 nm UV light 2 mins once for every 8 hrs by Annexin V-FITC/PI staining based flow cytometry analysis (reference value: 2.27%). It counts as functional.

The test system of assay [31] is HGC-27. The assay can be described thus: Inhibition of colony formation in human HGC-27 cells harboring PI3KCA mutation and overactive PI3K pathway assessed as reduction in number of colonies incubated for 10 days in presence of irradiation at 365 nm UV light for 2 mins once every 8 hrs by crystal violet staining based assay. The following applies: dose 0.08-0.4 µM, time 10.0 day. It counts as functional, cell-based.

In assay [32] the test system is HGC-27. Briefly: Inhibition of cell migration in human HGC-27 cells harboring PI3KCA mutation and overactive PI3K pathway assessed as reduction in migratory ability at 0.08 to 0.4 uM incubated for 16 hrs in presence of irradiation at 365 nm UV light for 2 mins once every 8 hrs by crystal violet staining based assay. It counts as functional. Particulars: dose 0.08-0.4 µM.

Assay [33] concerns HGC-27. The assay can be described thus: Antitumor activity against CM-Dil labeled human HGC-27 cells implanted in yolk sac of Albino wild type zebrafish embryos assessed as inhibition of tumor growth by measuring reduction in fluorescence density at 0.391 to 0.781 ng per fish incubated for 48 hrs in presence of irradiation with 365 nm UV light by fluorescence microscopic analysis. Type of assay: functional, cell-based. Particulars: dose 0.391-0.781 ng.

Activity calls are given as the source filed them. The rule behind the calls is not given here.

T1 sequence (P42336 whole entry, canonical isoform): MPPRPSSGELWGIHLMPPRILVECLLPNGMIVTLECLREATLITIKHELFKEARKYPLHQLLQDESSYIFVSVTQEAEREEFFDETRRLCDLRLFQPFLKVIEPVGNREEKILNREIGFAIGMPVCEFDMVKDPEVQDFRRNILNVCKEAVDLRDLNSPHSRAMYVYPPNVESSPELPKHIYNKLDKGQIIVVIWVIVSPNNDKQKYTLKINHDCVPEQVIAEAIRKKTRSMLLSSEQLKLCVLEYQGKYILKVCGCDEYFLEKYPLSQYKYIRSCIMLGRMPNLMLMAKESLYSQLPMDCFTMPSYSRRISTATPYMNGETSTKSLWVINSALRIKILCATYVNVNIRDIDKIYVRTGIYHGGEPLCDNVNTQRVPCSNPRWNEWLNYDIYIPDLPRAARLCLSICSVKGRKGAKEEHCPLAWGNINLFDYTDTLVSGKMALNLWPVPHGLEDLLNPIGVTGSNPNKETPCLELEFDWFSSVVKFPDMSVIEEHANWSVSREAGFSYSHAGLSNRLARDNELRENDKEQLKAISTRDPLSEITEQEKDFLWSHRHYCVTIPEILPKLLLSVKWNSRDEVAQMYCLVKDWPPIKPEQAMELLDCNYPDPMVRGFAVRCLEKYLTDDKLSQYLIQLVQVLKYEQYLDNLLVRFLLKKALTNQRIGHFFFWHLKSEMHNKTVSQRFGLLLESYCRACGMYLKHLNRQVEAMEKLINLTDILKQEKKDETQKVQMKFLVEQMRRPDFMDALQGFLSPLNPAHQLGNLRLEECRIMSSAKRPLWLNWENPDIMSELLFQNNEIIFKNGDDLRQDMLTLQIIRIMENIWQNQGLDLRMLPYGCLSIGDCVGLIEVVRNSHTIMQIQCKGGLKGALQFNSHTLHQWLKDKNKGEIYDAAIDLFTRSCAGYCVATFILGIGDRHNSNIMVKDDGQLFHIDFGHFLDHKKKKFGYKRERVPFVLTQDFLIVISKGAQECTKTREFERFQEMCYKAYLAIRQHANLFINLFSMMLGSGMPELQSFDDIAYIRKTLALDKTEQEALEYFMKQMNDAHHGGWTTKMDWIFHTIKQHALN

As for `COc1ncc(-c2cc(Oc3ccc(/N=N/c4ccc(Oc5cc(-c6cnc(OC)c(NS(=O)(=O)c7ccc(F)cc7F)c6)cc6c(C)ncnc56)cc4)cc3)c3ncnc(C)c3c2)cc1NS(=O)(=O)c1ccc(F)cc1F`, the IC50 in assay [1] worked out at 17.7 nM. The inhibition result in [2], in [3], in assay [4] and in [16] was “Dose-Dependent Effect” throughout. Besides, the inhibition entry in assay [5], in [6], in assay [7] and in assay [17] was “Active” in each case. Besides, the Activity in assay [8] amounted to 7.28%; in assay [9], 5.11%; in [10], 14.86%; in assay [11], 15.95%; in [12] it was 2.69%; in [13], 3.17%. In addition, the Activity in assay [14] is on record as 2.36%; in assay [15], 4.84%. In addition, the outcome in [18] was Active.
As to `COc1ncc(-c2cc(Oc3ccc(/N=N\c4ccc(Oc5cc(-c6cnc(OC)c(NS(=O)(=O)c7ccc(F)cc7F)c6)cc6c(C)ncnc56)cc4)cc3)c3ncnc(C)c3c2)cc1NS(=O)(=O)c1ccc(F)cc1F`, the half-maximal inhibitory concentration (IC50) in [19] was 5.24 nM. The inhibition result in assay [2], in [3], in assay [4] and in assay [31] was “Dose-Dependent Effect” in each case. Also, the inhibition entry in [20], in assay [21], in [22] and in assay [32] was “Active” in each case. Besides, the Activity in assay [23] is 33.67%; in assay [24], 3.6%; in assay [25], 66.74%; in assay [26], 14.28%; in [27], 5.44%; in assay [28] it was 18.8%. For the same compound, the Activity in assay [29] came to 6.05%; in assay [30] it was 26.4%. Moreover, the result in [33] was Active.

The term IC50 denotes the concentration that inhibits the measured activity by half.
